In ChEMBL document CHEMBL2390858, “Design, synthesis and anti-tuberculosis activity of 1-adamantyl-3-heteroaryl ureas with improved in vitro pharmacokinetic properties” (Bioorg Med Chem, 2013):
Converted amounts (≈) assume the structure as drawn.

Experiments:
[1] = system: Mycobacterium tuberculosis; test: microbe, parasite or virus in culture; conditions: H37Rv, 168 h
Proteus vulgaris = test: microbe, parasite or virus in culture
Klebsiella pneumoniae = test: microbe, parasite or virus in culture
Enterococcus faecalis = test: microbe, parasite or virus in culture
Proteus mirabilis = test: microbe, parasite or virus in culture
Bacillus subtilis = test: microbe, parasite or virus in culture
Streptococcus pyogenes = test: microbe, parasite or virus in culture
Vero = test: cells; conditions: Chlorocebus sabaeus, 72 h
Staphylococcus aureus [2] = test: microbe, parasite or virus in culture; conditions: ATCC 29213
Streptococcus pneumoniae = test: microbe, parasite or virus in culture
Acinetobacter = test: microbe, parasite or virus in culture
Staphylococcus aureus [3] = test: microbe, parasite or virus in culture; conditions: NRS70
Escherichia coli = test: microbe, parasite or virus in culture; conditions: K-12
[4] = target: T1, Bifunctional epoxide hydrolase 2 (Homo sapiens, UniProt P34913)
T1 sequence (P34913 whole entry): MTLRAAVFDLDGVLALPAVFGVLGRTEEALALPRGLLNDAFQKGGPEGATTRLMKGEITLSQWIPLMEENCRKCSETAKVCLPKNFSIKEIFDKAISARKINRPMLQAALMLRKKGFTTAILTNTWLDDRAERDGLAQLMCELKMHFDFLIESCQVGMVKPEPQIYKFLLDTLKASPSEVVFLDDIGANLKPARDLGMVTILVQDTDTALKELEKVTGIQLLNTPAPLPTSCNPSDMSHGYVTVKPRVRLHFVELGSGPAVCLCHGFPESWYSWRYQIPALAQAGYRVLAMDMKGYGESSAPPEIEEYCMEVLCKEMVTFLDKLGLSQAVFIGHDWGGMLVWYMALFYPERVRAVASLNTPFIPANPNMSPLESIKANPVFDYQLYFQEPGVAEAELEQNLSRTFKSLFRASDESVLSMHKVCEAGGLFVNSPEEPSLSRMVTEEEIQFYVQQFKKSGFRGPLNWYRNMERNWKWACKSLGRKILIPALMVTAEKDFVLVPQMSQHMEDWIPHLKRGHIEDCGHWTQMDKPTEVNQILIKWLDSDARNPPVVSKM

Pseudomonas aeruginosa = test: microbe, parasite or virus in culture
Bacillus anthracis = test: microbe, parasite or virus in culture; conditions: Sterne
Burkholderia cepacia = test: microbe, parasite or virus in culture
[5] = buffer, 18 h, pH 7.4

| Compound | MIC [1] [µg/mL] | MIC (Proteus vulgaris) [µg/mL] | MIC (Klebsiella pneumoniae) [µg/mL] | MIC (Enterococcus faecalis) [µg/mL] | MIC (Proteus mirabilis) [µg/mL] | MIC (Bacillus subtilis) [µg/mL] | MIC (Streptococcus pyogenes) [µg/mL] | IC50 (Vero) [µg/mL] | MIC (Staphylococcus aureus [2]) [µg/mL] | MIC (Streptococcus pneumoniae) [µg/mL] | MIC (Acinetobacter) [µg/mL] | MIC (Staphylococcus aureus [3]) [µg/mL] | MIC (Escherichia coli) [µg/mL] | IC50 [4] [µM] | MIC (Pseudomonas aeruginosa) [µg/mL] | MIC (Bacillus anthracis) [µg/mL] | MIC (Burkholderia cepacia) [µg/mL] | solubility [5] [µg/mL] |
| --- | --- | --- | --- | --- | --- | --- | --- | --- | --- | --- | --- | --- | --- | --- | --- | --- | --- | --- |
| CCCn1nc(NC(=O)NC23CC4CC(CC(C4)C2)C3)cc1C | 1.56 (≈ 4.93 µM) | > 200 | > 200 | > 200 | > 200 | > 200 | > 200 | 26 (≈ 82.2 µM) | > 200 | > 200 | > 200 | > 200 | > 200 | 0.751 | > 200 | > 200 | > 200 | – |
| Cc1csc(NC(=O)NC2C3CC4CC(C3)CC2C4)n1 (stereo unspecified) | 1.56 (≈ 5.35 µM) | > 200 | > 200 | > 200 | > 200 | > 200 | 200 (≈ 686 µM) | 60 (≈ 206 µM) | 200 (≈ 686 µM) | 100 (≈ 343 µM) | > 200 | 100 (≈ 343 µM) | > 200 | 0.71 | > 200 | > 200 | > 200 | – |
| O=C(Nc1nnc(C2CC2)o1)NC1C2CC3CC(C2)CC1C3 (stereo unspecified) | 3.13 (≈ 10.4 µM) | > 200 | > 200 | > 200 | > 200 | > 200 | > 200 | 180 (≈ 595 µM) | 200 (≈ 661 µM) | > 200 | > 200 | > 200 | > 200 | 2.41 | > 200 | > 200 | 200 (≈ 661 µM) | – |
| CCn1nc(NC(=O)NC2C3CC4CC(C3)CC2C4)cc1C (stereo unspecified) | 3.13 (≈ 10.3 µM) | > 200 | > 200 | > 200 | > 200 | > 200 | > 200 | 163 (≈ 539 µM) | 100 (≈ 331 µM) | > 200 | > 200 | > 200 | > 200 | 2.46 | > 200 | > 200 | > 200 | – |
| COc1ccc(NS(=O)(=O)c2ccc(NC(=O)NC34CC5CC(CC(C5)C3)C4)cc2)nn1 | 25 (≈ 54.6 µM) | 200 (≈ 437 µM) | > 200 | 200 (≈ 437 µM) | 100 (≈ 219 µM) | 200 (≈ 437 µM) | > 200 | – | 200 (≈ 437 µM) | 100 (≈ 219 µM) | > 200 | 100 (≈ 219 µM) | 200 (≈ 437 µM) | 0.007 | > 200 | 50 (≈ 109 µM) | 200 (≈ 437 µM) | 14.1 (≈ 30.8 µM) |
| Cc1cc(NS(=O)(=O)c2ccc(NC(=O)NC34CC5CC(CC(C5)C3)C4)cc2)no1 | 25 (≈ 58.1 µM) | > 200 | > 200 | > 200 | > 200 | > 200 | > 200 | – | > 200 | > 200 | > 200 | 50 (≈ 116 µM) | > 200 | 0.292 | > 200 | > 200 | > 200 | 2 (≈ 4.65 µM) |
| Cc1nc(NS(=O)(=O)c2ccc(NC(=O)NC34CC5CC(CC(C5)C3)C4)cc2)oc1C | > 25 | > 200 | > 200 | > 200 | > 200 | > 200 | > 200 | – | > 200 | > 200 | > 200 | > 200 | > 200 | 0.013 | > 200 | > 200 | > 200 | 27.1 (≈ 61 µM) |
| Cc1ccnc(NS(=O)(=O)c2ccc(NC(=O)NC34CC5CC(CC(C5)C3)C4)cc2)n1 | > 25 | > 200 | > 200 | > 200 | > 200 | > 200 | > 200 | – | > 200 | > 200 | 100 (≈ 226 µM) | > 200 | > 200 | 0.017 | > 200 | 100 (≈ 226 µM) | > 200 | 2.5 (≈ 5.66 µM) |
